Assay results as given in publication PMC10301922, “Anti-Oxidant, Anti-Mutagenic Activity and Safety Evaluation of Antrocin” (Toxics, 2023).

What was measured:
[1] = Ferric reducing ability of plasma (FRAP); details: 10 mg/mL antrocin
Experimental: The following methodology describes the FRAP assay: Add 10 µL of sample to a 96-well plate. For each sample, a parallel sample was prepared as a sample background control. Add 4 µL of FRAP Positive Control to each well and make up to 10 µL with FRAP Assay Buffer. For standard curve preparation, add 0, 2, 4, 6, 8, and 10 µL of a 2 mM ferrous standard solution to the wells of a 96-well plate to generate 0, 4, 8, 12, 16, and 20 nmol/well of ferrous iron, respectively. Adjust the volume to 10 µL/well with FRAP Assay Buffer. Mix sufficient reagents for the number of tests to be performed, including: Add 190 µL of Reaction Mix to the wells of the standard curve, positive control, and test samples. Add 190 µL Background Control Mix to the sample background control wells and mix well. After 60 min of reaction at 37 °C, measure the absorbance at 594 nm. Subtract 0 nmol standard readings from all standard curve readings to draw a ferrous standard curve. If the sample background control is significant, subtract the background control reading from its paired sample reading. Apply the sample OD value to the ferrous standard curve to obtain the reduced ferrous ion B nmol generated during the reaction.
Use the following calculation to determine the mM ferrous equivalence of the sample.
Sample FRAP or mM ferrous equivalents = B × D/V = nmol/µL(2) […]

[2] = Trolox equivalent antioxidant capacity (TEAC); details: 10 mg/mL antrocin
Experimental: The following methodology describes the TEAC assay: Add 40 μL of sample to a 96-well plate and adjust the volume to 100 μL with ddH2O. The absorbance of the sample should be within the linear range of the standard curve (0–20 nmol/well). The detection limit of this assay is approximately 0.1 nmol (or 1 µM) Trolox per well. For Trolox Standard Curve Preparation, dissolve lyophilized Trolox Standard in 20 µL of pure DMSO, add 980 µL of distilled water and mix well to generate a 1 mM solution, then aliquot the solution and store it at −20 °C for stable storage for 4 months. Add 0, 4, 8, 12, 16, 20 µL of Trolox standard to each well. Adjust the total volume to 100 µL with ddH2O to obtain 0, 4, 8, 12, 16, 20 nmol of Trolox standards, respectively. For preparation of working solutions, dilute 1 part of Cu^2+ reagent with 49 parts of Assay Diluent, and dilute enough working solution for detection. Add 100 µL of Cu^2+ working solution to standard wells and sample wells. After capping the plate and reacting at room temperature for 1.5 h, measure the absorbance at 570 nm. Draw a Trolox standard curve by subtracting the 0 nmol standard reading from all standard curve readings. […]
• Sa = the amount of sample (in nmol) read from the standard curve. • Sv = the undiluted sample volume added to the well.

[3] = test system: Sprague Dawley rats; assay: 28-day oral toxicity test: hematology
[4] = test system: Salmonella typhimurium TA102; assay: Ames test (plate incorporation), TA102
[5] = test system: Salmonella typhimurium TA1537; assay: Ames test (plate incorporation), TA1537
[6] = test system: ICR male mice; assay: In vivo mammalian erythrocyte micronucleus test
[7] = female rats, 7.5 mg/kg oral 28 d
[8] = female rats, 37.5 mg/kg oral 28 d
[9] = male rats, 37.5 mg/kg oral 28 d

Q: With `C=C1CC[C@H]2C(C)(C)CCC[C@@]23C(=O)OC[C@@H]13` [Antrocin, (-)-Antrocin] as the compound, how does the “Ferric Reducing Ability of Plasma (mM Ferrous Equivalent)” value [1] read?
A: 0.218 ± 0.004 mM Ferrous Equivalent

Q: What about the “Trolox Equivalent Antioxidant Capacity (mM Trolox Equivalents)” value [2] of the same compound?
A: 0.508 ± 0.003 mM Trolox equivalents

Q: What about the BASO [3, 7] of the same compound?
A: 0.0 ± 0.1%

Q: What about the EOSIN [3, 7] of the same compound?
A: 2.1 ± 1.7%

Q: And the HCT [3, 7]?
A: 45.0 ± 3.7%

Q: What about the HGB [3, 7] of the same compound?
A: 14.7 ± 1.2 g/dL

Q: And the LYMPH [3, 7]?
A: 86.1 ± 5.4%

Q: And the MCH [3, 7]?
A: 19.5 ± 0.8 pg

Q: What about the MCHC [3, 7] of the same compound?
A: 32.7 ± 0.3 g/dL

Q: What about the MCV [3, 7] of the same compound?
A: 59.7 ± 1.7 fL

Q: What about the MONO [3, 7] of the same compound?
A: 2.3 ± 1.1%

Q: What about the NEUT [3, 7] of the same compound?
A: 9.6 ± 3.3%

Q: What about the PLT [3, 7] of the same compound?
A: 606.0 ± 430.1 * 10^3/µL

Q: And the RBC [3, 7]?
A: 7.5 ± 0.6 10^6/µL

Q: And the WBC [3, 7]?
A: 8.7 ± 3.4 10^3/µL

Q: What about the BASO [3, 8] of the same compound?
A: 0.2 ± 0.2%

Q: And the EOSIN [3, 8]?
A: 1.2 ± 0.3%

Q: And the HCT [3, 8]?
A: 48.4 ± 2.0%

Q: What about the HGB [3, 8] of the same compound?
A: 15.8 ± 0.5 g/dL

Q: And the LYMPH [3, 8]?
A: 84.5 ± 4.1%

Q: What about the MCH [3, 8] of the same compound?
A: 19.8 ± 0.5 pg

Q: And the MCHC [3, 8]?
A: 32.7 ± 0.4 g/dL

Q: What about the MCV [3, 8] of the same compound?
A: 60.6 ± 1.0 fL

Q: And the MONO [3, 8]?
A: 3.2 ± 2.0%

Q: What about the NEUT [3, 8] of the same compound?
A: 10.9 ± 3.4%

Q: And the PLT [3, 8]?
A: 1065.6 ± 199.8 10^3/µL

Q: And the RBC [3, 8]?
A: 8.0 ± 0.4 10^6/µL

Q: And the WBC [3, 8]?
A: 7.8 ± 4.5 10^3/µL

Q: What about the BASO ([3]; male rats, 7.5 mg/kg oral 28 d) of the same compound?
A: 0.0 ± 0.1%

Q: What about the EOSIN ([3]; male rats, 7.5 mg/kg oral 28 d) of the same compound?
A: 1.2 ± 0.3%

Q: What about the HCT ([3]; male rats, 7.5 mg/kg oral 28 d) of the same compound?
A: 45.8 ± 1.2%

Q: What about the HGB ([3]; male rats, 7.5 mg/kg oral 28 d) of the same compound?
A: 15.1 ± 0.4 g/dL

Q: What about the LYMPH ([3]; male rats, 7.5 mg/kg oral 28 d) of the same compound?
A: 77.2 ± 1.7 %

Q: What about the MCH ([3]; male rats, 7.5 mg/kg oral 28 d) of the same compound?
A: 19.7 ± 0.5 pg

Q: And the MCHC ([3]; male rats, 7.5 mg/kg oral 28 d)?
A: 32.9 ± 0.3 g/dL

Q: And the MCV ([3]; male rats, 7.5 mg/kg oral 28 d)?
A: 59.8 ± 1.5 fL

Q: What about the MONO ([3]; male rats, 7.5 mg/kg oral 28 d) of the same compound?
A: 2.7 ± 2.4%

Q: And the NEUT ([3]; male rats, 7.5 mg/kg oral 28 d)?
A: 18.9 ± 3.1%

Q: And the PLT ([3]; male rats, 7.5 mg/kg oral 28 d)?
A: 1235.2 ± 20.9 * 10^3/µL

Q: And the RBC ([3]; male rats, 7.5 mg/kg oral 28 d)?
A: 7.7 ± 0.1 10^6/µL

Q: And the WBC ([3]; male rats, 7.5 mg/kg oral 28 d)?
A: 5.3 ± 2.0 10^3/µL

Q: What about the BASO [3, 9] of the same compound?
A: 0.1 ± 0.1%

Q: What about the EOSIN [3, 9] of the same compound?
A: 0.6 ± 0.4%

Q: What about the HCT [3, 9] of the same compound?
A: 48.3 ± 3.2%

Q: What about the HGB [3, 9] of the same compound?
A: 15.7 ± 0.9 g/dL

Q: And the LYMPH [3, 9]?
A: 83.9 ± 3.9 %

Q: And the MCH [3, 9]?
A: 19.4 ± 0.6 pg

Q: What about the MCHC [3, 9] of the same compound?
A: 32.4 ± 0.6 g/dL

Q: And the MCV [3, 9]?
A: 59.8 ± 1.3 fL

Q: And the MONO [3, 9]?
A: 1.8 ± 1.1%

Q: And the NEUT [3, 9]?
A: 13.6 ± 3.7 %

Q: What about the PLT [3, 9] of the same compound?
A: 1372.2 ± 161.8 * 10^3/µL

Q: And the RBC [3, 9]?
A: 8.1 ± 0.6 10^6/µL

Q: And the WBC [3, 9]?
A: 6.4 ± 1.1 10^3/µL

Q: And the “Number of Revertant” value ([4]; TA102, with S9, 0.003125 mg/plate)?
A: 352.0 ± 8.5 Colony/Plate

Q: And the “Number of Revertant” value ([4]; TA102, with S9, 0.00625 mg/plate)?
A: 326.7 ± 5.9 Colony/Plate

Q: What about the “Number of Revertant” value ([4]; TA102, with S9, 0.025 mg/plate) of the same compound?
A: 327.3 ± 7.7 Colony/Plate

Q: And the “Number of Revertant” value ([4]; TA102, with S9, 0.05 mg/plate)?
A: 322.0 ± 6.2 Colony/Plate

Q: And the “Number of Revertant” value ([4]; TA102, without S9, 0.003125 mg/plate)?
A: 245.7 ± 10.4 Colony/Plate

Q: And the “Number of Revertant” value ([4]; TA102, without S9, 0.00625 mg/plate)?
A: 246.0 ± 16.4 Colony/Plate

Q: And the “Number of Revertant” value ([4]; TA102, without S9, 0.025 mg/plate)?
A: 278.3 ± 4.5 Colony/Plate

Q: And the “Number of Revertant” value ([4]; TA102, without S9, 0.05 mg/plate)?
A: 270.0 ± 11.2 Colony/Plate

Q: And the “Number of Revertant” value ([5]; TA1537, with S9, 0.003125 mg/plate)?
A: 11.7 ± 1.9 Colony/Plate

Q: And the “Number of Revertant” value ([5]; TA1537, with S9, 0.00625 mg/plate)?
A: 6.7 ± 2.4 Colony/Plate

Q: And the “Number of Revertant” value ([5]; TA1537, with S9, 0.025 mg/plate)?
A: 10.3 ± 2.1 Colony/Plate

Q: And the “Number of Revertant” value ([5]; TA1537, with S9, 0.05 mg/plate)?
A: 6.0 ± 1.4 Colony/Plate

Q: What about the “Number of Revertant” value ([5]; TA1537, without S9, 0.003125 mg/plate) of the same compound?
A: 14.3 ± 2.6 Colony/Plate

Q: And the “Number of Revertant” value ([5]; TA1537, without S9, 0.00625 mg/plate)?
A: 8.7 ± 0.5 Colony/Plate

Q: What about the “Number of Revertant” value ([5]; TA1537, without S9, 0.025 mg/plate) of the same compound?
A: 13.0 ± 2.2 Colony/Plate

Q: What about the “Number of Revertant” value ([5]; TA1537, without S9, 0.05 mg/plate) of the same compound?
A: 9.7 ± 0.9 Colony/Plate

Q: And the “Mn-RETs/1000RETs (‰)” value ([6]; 48 h, 100 mg/kg oral gavage)?
A: 2.2 ± 0.9 ‰

Q: What about the “RETs/1000RBCs (‰)” value ([6]; 48 h, 100 mg/kg oral gavage) of the same compound?
A: 20.4 ± 2.4 ‰

Q: What about the frequencies of micronuclei ([6]; 48 h, 250 mg/kg) of the same compound?
A: 18.8 ± 1.9 ‰

Q: And the “Mn-RETs/1000RETs (‰)” value ([6]; 48 h, 250 mg/kg oral gavage)?
A: 1.5 ± 0.2 ‰

Q: What about the “RETs/1000RBCs (‰)” value ([6]; 48 h, 250 mg/kg oral gavage) of the same compound?
A: 18.8 ± 1.9 ‰

Q: What about the frequencies of micronuclei ([6]; 48 h, […]) of the same compound?
A: 20.8 ± 2.5 ‰

Q: What about the frequencies of micronuclei ([6]; 72 h, 100 mg/kg) of the same compound?
A: 31.0 ± 6.1 ‰

Q: And the “Mn-RETs/1000RETs (‰)” value ([6]; 72 h, 100 mg/kg oral gavage)?
A: 3.0 ± 1.0 ‰

Q: What about the “RETs/1000RBCs (‰)” value ([6]; 72 h, 100 mg/kg oral gavage) of the same compound?
A: 31.0 ± 6.1 ‰

Q: What about the frequencies of micronuclei ([6]; 72 h, 250 mg/kg) of the same compound?
A: 26.5 ± 4.6 ‰

Q: And the “Mn-RETs/1000RETs (‰)” value ([6]; 72 h, 250 mg/kg oral gavage)?
A: 2.2 ± 0.5 ‰

Q: And the “RETs/1000RBCs (‰)” value ([6]; 72 h, 250 mg/kg oral gavage)?
A: 26.5 ± 4.6 ‰

Q: And the frequencies of micronuclei ([6]; 72 h, […])?
A: 28.9 ± 5.0 ‰

Q: And the “frequency of micronuclei versus control” value ([6]; antrocin-treated groups after 48 or 72 h)?
A: no significant changes
